{
  "source": "patent US11826375B2",
  "about": "“Phosphinic amide prodrugs of tenofovir” (Merck Sharp & Dohme LLC, priority 2018, dated 2023)",
  "data": [
    {"system": "HIV-1", "test": "Human PBMC based HIV-1 replication assay", "format": "cell-based", "conditions": "Human immunodeficiency virus 1, PBMC, PHA-activated human PBMCs, 24 h preincubation with compound, infected with GFP-encoding HIV-1 construct", "procedure": "(§1) Assessing Antiviral Potency in a Human PBMC Based HIV-1 Replication Assay\n(§2) The antiviral activity of the tenofovir prodrugs of the Examples herein was assessed in a human peripheral blood mononuclear cell (PBMC) based HIV-1 replication assay and performed as follows. Human PBMCs were treated with PHA ([…]) in RPMI 1640 medium containing 10% heat inactivated FBS for 2 to 3 days. Compound plates were prepared by dispensing compounds dissolved in DMSO into wells of 384 well poly-D-lysine-coated plates (0.2 μl/well) using an ECHO acoustic dispenser. Each compound was tested in a 10-point serial 3-fold dilution (typical final concentrations: 5.0 μM-0.1 nM). Controls included no inhibitor (DMSO only) and a combination of three antiviral agents (efavirenz, indinavir, an in-house integrase strand transfer inhibitor at final concentrations of 4 μM each). PHA-activated human PBMCs were added to the compound plates and incubated for 24 hours at 37° C./5% CO2/90% relative humidity. The PBMCs were then infected with an HIV-1 construct that encodes Green Fluorescence Protein (GFP) and the infected cells were incubated at 37° C./5% CO2/90% relative humidity for additional 24 hours.\n(§3) Infected cells were quantified by counting the number of green cells in each well using an Acumen eX3 scanner. IC50 values were determined by non-linear 4-parameter curve fitting.", "units": {"IC50": "nM"}, "values": [
      {"smiles": "CCCOC(=O)C(C)(C)NP(=O)(CO[C@H](C)Cn1cnc2c(N)ncnc21)C(C#N)C(=O)OC(C)C", "note": "(stereo partly drawn) [Example 1, Propyl 2-((((R)-1-(6-amino-9H-purin-9-yl)propan-2-yloxy)methyl)(1-cyano-2-isopropoxy-2-oxoethyl)phosphorylamino)-2-methylpropanoate]", "IC50": 1520},
      {"smiles": "CCCOC(=O)C(C)(C)NP(=O)(CO[C@H](C)Cn1cnc2c(N)ncnc21)C(C(=O)OC(C)C)c1ccccc1", "note": "(stereo partly drawn) [Example 5, Propyl 2-((((R)-1-(6-amino-9H-purin-9-yl)propan-2-yloxy)methyl)(2-isopropoxy-2-oxo-1-phenylethyl)phosphorylamino)-2-methylpropanoate]", "IC50": 58.8},
      {"smiles": "CCCOC(=O)C(C)(C)NP(=O)(CO[C@H](C)Cn1cnc2c(N)ncnc21)Cc1ccccc1", "note": "(stereo partly drawn) [Example 9, Propyl 2-((((R)-1-(6-amino-9H-purin-9-yl)propan-2-yloxy)methyl)(benzyl)phosphorylamino)-2-methylpropanoate]", "IC50": 965},
      {"smiles": "CCCOC(=O)C(C)(C)NP(=O)(CO[C@H](C)Cn1cnc2c(N)ncnc21)C(C#N)C#N", "note": "(single isomer, unassigned) [Example 6A]", "IC50": "> 2100"},
      {"smiles": "CCCOC(=O)C(C)(C)NP(=O)(CO[C@H](C)Cn1cnc2c(N)ncnc21)CC(=O)OC(C)C", "note": "(single isomer, unassigned) [Example 3A]", "IC50": 189},
      {"smiles": "CCCOC(=O)C(C)(C)NP(=O)(CC#N)CO[C@H](C)Cn1cnc2c(N)ncnc21", "note": "(stereo partly drawn) [Example 4, Propyl 2-((((R)-1-(6-amino-9H-purin-9-yl)propan-2-yloxy)methyl)(cyanomethyl)phosphorylamino)-2-methylpropanoate]", "IC50": "> 2100"},
      {"smiles": "CCCOC(=O)C(C)(C)NP(=O)(CO[C@H](C)Cn1cnc2c(N)ncnc21)CC(=O)OC(C)(C)C", "note": "(stereo partly drawn) [Example 8, Propyl 2-((((R)-1-(6-amino-9H-purin-9-yl)propan-2-yloxy)methyl)(2-tert-butoxy-2-oxoethyl)phosphorylamino)-2-methylpropanoate]", "IC50": "> 2100"}
    ]},
    {"system": "HIV-1", "test": "Human PBMC based HIV-1 replication assay", "format": "cell-based", "conditions": "PHA-activated human PBMCs, 24 h preincubation with compound, infected with GFP-encoding HIV-1 construct", "procedure": "as §1, §2, §3", "units": {"IC50": "nM"}, "values": [
      {"smiles": "CCCOC(=O)C(C)(C)NP(=O)(CO[C@H](C)Cn1cnc2c(N)ncnc21)C(C#N)C#N", "note": "(single isomer, unassigned) [Example 6B]", "IC50": "> 2100"},
      {"smiles": "CCCOC(=O)C(C)(C)NP(=O)(CO[C@H](C)Cn1cnc2c(N)ncnc21)CC(=O)OC(C)C", "note": "(single isomer, unassigned) [Example 3B]", "IC50": 226},
      {"smiles": "CCCOC(=O)C(C)(C)NP(=O)(CO[C@H](C)Cn1cnc2c(N)ncnc21)CC(=O)N(CC)CC", "note": "(single isomer, unassigned) [Example 7A]", "IC50": 931},
      {"smiles": "CCCOC(=O)C(C)(C)NP(=O)(CO[C@H](C)Cn1cnc2c(N)ncnc21)C(C(=O)OC(C)C)C(=O)OC(C)C", "note": "(single isomer, unassigned) [Example 2B]", "IC50": 6.8},
      {"smiles": "CCCOC(=O)C(C)(C)NP(=O)(CO[C@H](C)Cn1cnc2c(N)ncnc21)CC(=O)N(CC)CC", "note": "(single isomer, unassigned) [Example 7B]", "IC50": "> 2100"},
      {"smiles": "CCCOC(=O)C(C)(C)NP(=O)(CO[C@H](C)Cn1cnc2c(N)ncnc21)C(C(=O)OC(C)C)C(=O)OC(C)C", "note": "(single isomer, unassigned) [Example 2A]", "IC50": 73.9}
    ]},
    {"system": "not listed separately", "test": "Prodrug stability assay in bio-relevant media (Pancreatin solution in FaSSIF)", "format": "in vitro ADME", "conditions": "HPLC peak area of prodrug at 5 h / 0 h, 0.5 mg/mL Pancreatin in FaSSIF, 37° C.", "procedure": "Prodrug Stability Assay in Bio-Relevant Media\nThe following assay was employed to evaluate the stability of the prodrugs in simulated gastrointestinal tract conditions. Preparation of fasted state simulated intestinal fluid (FaSSIF) using Phares SIF Powder was carried out according to protocols from Phare Drug Delivery AG (Baselland, Switzerland). For sample preparation, 10 μL stock solutions (10 mM) of prodrug substance in DMSO was added to 990 μL of 0.5 mg/mL Pancreatin solution (Fisher CAS #8049-47-6) in FaSSIF. Two samples were prepared for each compound. If the sample was a clear solution, it was directly analyzed by HPLC. If the sample was not clear, the sample was diluted with 100% MeCN, maintained at 37° C. and observed 5 h later. If the sample was clear, HPLC analysis was directly performed. If the sample was still not clear, the sample was diluted with 100% ACN and assayed by HPLC. All the samples were vortexed for 3 min and observed before injection. For the diluted samples, the area is multiplied by a dilution factor when the data is analyzed. The analysis was carried out with an Agilent 1100 series HPLC with autosampler. The column was a Poroshell 120 EC-C18, 4.6×50 mm, 2.7 μm. The flow rate was 1.8 mL/min, and the injection volume was 5 or 10 μL. UV detection was in the range 210-400 nm. […]", "units": {"GI Tract stability": "%"}, "values": [
      {"smiles": "CCCOC(=O)C(C)(C)NP(=O)(CO[C@H](C)Cn1cnc2c(N)ncnc21)C(C(=O)OC(C)C)C(=O)OC(C)C", "note": "(single isomer, unassigned) [Example 2B]", "GI Tract stability": 87.2}
    ]}
  ]
}
